Measurements: patent publication US10117948B2, “Selective arylation of dichalcogenides in biomolecules” (priority 2015, dated 2018)
Converted amounts (≈) assume the structure as drawn.

Assays:
[1] = cited from earlier work
[2] = system: BT-474 cells (mammary gland cancer cells); experiment: Screening of genistein antibody-drug conjugate against BT-474 cells; type: cell-based; settings: tested as ADC of genistein
Text: An antibody-drug conjugate (ADC) of genistein was screened against BT-474 cells (mammary gland cancer cells).

[3] = system: A. baumannii Wild-type (MMX 1630, ATCC 19606); experiment: MIC screening, vancomycin vs vancomycin/peptide conjugates; type: cell-based; settings: Acinetobacter baumannii, ATCC19606
Text: (§1) Vancomycin was conjugated to a variety of antibacterial peptides and screened against (a) resistant strains of gram-positive bacteria and b) gram-negative bacteria. See FIG. 20, FIG. 21, FIG. 22, and Table 3.

[4] = system: E. faecalis VRE (Van A) (MMX 486); experiment: as above; type: cell-based; settings: Enterococcus faecalis
Text: as §1

[5] = system: E. faecalis VRE (Van B) (MMX 202, ATCC 51299); experiment: as above; type: cell-based; settings: Enterococcus faecalis
Text: as §1

[6] = system: E. faecalis VSE: QC (MMX 101, ATCC 29212); experiment: as above; type: cell-based; settings: Enterococcus faecalis, ATCC29212
Text: as §1

[7] = system: K. pneumoniea KPC-1 (MMX 6902, ATCC BAA-1705); experiment: as above; type: cell-based
Text: as §1

[8] = system: K. pneumoniea PSSP (MMX 1195, ATCC 49619); experiment: as above; type: cell-based
Text: as §1

[9] = system: gram-positive bacteria and gram-negative bacteria; settings: due to the outer cell membrane; cited from earlier work

Row | SMILES | pKa [1] | toxicity to cells [2] | MIC [3] | MIC [4] | MIC [5] | MIC [6] | MIC [7] | MIC [8] | activity against gram-negative bacteria [9]
1 | N[C@@H](CS)C(=O)O [cysteine] | 8.14 | – | – | – | – | – | – | – | –
2 | N[C@@H](C[SeH])C(=O)O [selenocysteine] | 5.47 | not toxic to cells | – | – | – | – | – | – | –
3 | CN[C@H](CC(C)C)C(=O)N[C@H]1C(=O)N[C@@H](CC(N)=O)C(=O)N[C@H]2C(=O)N[C@H]3C(=O)N[C@H](C(=O)N[C@H](C(=O)O)c4cc(O)cc(O)c4-c4cc3ccc4O)[C@H](O)c3ccc(c(Cl)c3)Oc3cc2cc(c3O[C@@H]2O[C@H](CO)[C@@H](O)[C@H](O)[C@H]2O[C@H]2C[C@](C)(N)[C@H](O)[C@H](C)O2)Oc2ccc(cc2Cl)[C@H]1O [vancomycin] | – | – | > 64 µg/mL | > 64 µg/mL | 16 µg/mL (≈ 11 µM) | 4 µg/mL (≈ 2.76 µM) | > 64 µg/mL | 0.25 µg/mL (≈ 0.173 µM) | not active
